The test system of one test is authentic HCoV-OC43. Briefly: Authentic virus inhibition assay, HCoV-OC43 in RD cells. The format is cell-based. Particulars: RD cell line, CCK8, triplicate, repeated twice, read-out: IC50, inhibition of HCoV-OC43 replication. As to the method: (§1) Inhibition of authentic coronaviruses was performed as previously reported. Briefly, authentic HCoV-OC43 or HCoV-229E was coincubated with a test peptide at different concentrations at 37 °C for 30 min. Then, these authentic virus–peptide mixtures were added into target cells in a 96-well plate (Huh-7 cell line for HCoV-229E, RD cell line for HCoV-OC43). CCK8 solution was used to assess virus-induced cytopathy when the cytopathic effect (CPE) of DMSO-treated target cells was clear and the IC50 value was calculated.

The subject of test [1] is SARS-CoV PsV. The note with it: 12 h.
The test system of test [2] is authentic HCoV-229E. As to the kind of experiment: Authentic virus inhibition assay, HCoV-229E in Huh-7 cells. Type of test: cell-based. Particulars: Huh-7 cell line, CCK8, triplicate, repeated twice, read-out: IC50, inhibition of HCoV-229E replication. As to the method: as §1
The subject of another test is SARS-CoV-2 VOC PsVs. Particulars: 12 h.
The test system of test [3] is SARS-CoV-2 PsV.
For test [4], the system named is authentic HCoV-229E. Briefly: microbe, parasite or virus in culture. The format is cell-based. The note with it: Human coronavirus 229E; Huh-7 cell line; cells pretreated with 25-HC 8–12 h; CCK-8; read-out: IC50, inhibition of authentic HCoV-229E infection.
Test [5] deals with SARS-CoV PsV. As to the kind of experiment: microbe, parasite or virus in culture. The format is cell-based. Particulars: Severe acute respiratory syndrome coronavirus, read-out: IC50, inhibition of SARS-CoV PsV infection.
In test [6] the test system is SARS-CoV-2 PsV. Briefly: microbe, parasite or virus in culture.
For test [7], the system named is MERS-CoV PsV. As to the kind of experiment: microbe, parasite or virus in culture. Particulars: Middle East respiratory syndrome-related coronavirus.
Test [8] deals with SARS-CoV-2 PsV. Briefly: microbe, parasite or virus in culture. Particulars: Severe acute respiratory syndrome coronavirus 2; target cells pretreated with 25-HC 8–12 h; luciferase; read-out: IC50, inhibition of SARS-CoV-2 PsV infection. The format is cell-based.
Test [9] concerns MERS-CoV PsV. The note with it: in 25-HC/EK1 combination versus alone.

Each structure is given as a SMILES string. Like-named read-outs stand apart in the source and are kept apart here.

With `CC[C@H](C)[C@H](NC(=O)[C@H](C)NC(=O)[C@H](CCC(=O)O)NC(=O)[C@H](CCC(=O)O)NC(=O)[C@H](CC(C)C)NC(=O)[C@H](CCCCN)NC(=O)[C@H](CCCCN)NC(=O)[C@H](CCSC)NC(=O)[C@H](CCC(=O)O)NC(=O)[C@H](Cc1ccc(O)cc1)NC(=O)[C@H](CCC(=O)O)NC(=O)[C@H](CC(C)C)NC(=O)[C@H](CC(=O)O)NC(=O)[C@H](CC(C)C)NC(=O)[C@H](Cc1ccccc1)NC(=O)[C@@H](NC(=O)[C@@H](NC(=O)[C@H](CC(N)=O)NC(=O)[C@@H](NC(=O)[C@H](CCC(N)=O)NC(=O)[C@H](CC(=O)O)NC(=O)[C@H](CC(C)C)NC(=O)[C@@H](N)CO)[C@@H](C)CC)C(C)C)[C@@H](C)O)C(=O)N[C@@H](CCCCN)C(=O)N[C@@H](CCCCN)C(=O)N[C@@H](CC(C)C)C(=O)N[C@@H](CCC(=O)O)C(=O)N[C@@H](CCC(=O)O)C(=O)N[C@@H](CO)C(=O)N[C@@H](Cc1ccc(O)cc1)C(=O)N[C@H](C(=O)N[C@@H](CC(=O)O)C(=O)N[C@@H](CC(C)C)C(=O)N[C@@H](CCCCN)C(=O)N[C@@H](CCC(=O)O)C(=O)N[C@@H](CC(C)C)C(=O)O)[C@@H](C)CC` [EK1], the IC50 in the test on authentic HCoV-OC43 is 1.51 µM; in the test with SARS-CoV PsV [1], 2.8 µM; with authentic HCoV-229E [2] it was 2.2 µM; in the test on SARS-CoV-2 VOC PsVs, 0.48 to 4.61 µM; with SARS-CoV-2 PsV [3] (PsV, 12 h), 0.84 µM.

Consider `C[C@H](CCCC(C)(C)O)[C@H]1CC[C@H]2[C@@H]3CC=C4C[C@@H](O)CC[C@]4(C)[C@H]3CC[C@]12C` [25-HC, 25-Hydroxycholesterol], for which the IC50 in the test on authentic HCoV-229E [4] came to 5.35 µM; in the test on SARS-CoV PsV [5], 2.79 µM; in the test on SARS-CoV-2 PsV [6] (Severe acute respiratory syndrome coronavirus 2, read-out: IC50, tested alone), 9.3 µM; in the test with SARS-CoV-2 PsV [6] (Severe acute respiratory syndrome coronavirus 2, read-out: IC50, tested in EK1/25-HC combination), 3.7 µM; in the test with MERS-CoV PsV [7] (read-out: IC50, tested alone), 6.8 µM; in the test on MERS-CoV PsV [7] (read-out: IC50, tested in EK1/25-HC combination), 1.6 µM. Moreover, in the test with SARS-CoV-2 PsV [8], the IC50 came to 4.11 µM. The dose reduction in the test with MERS-CoV PsV [9] is listed as 4 fold; in the test with SARS-CoV-2 PsV [3] (SARS-CoV-2 PsV, in 25-HC/EK1 combination versus alone) it was 3 fold.

(Values after article PMC8584349 (International Journal of Molecular Sciences, 2021).)
